39 compounds from the OPERA property sets (Mansouri et al. 2018) can be followed below.

Conditions in one data set: not given
Consider `CC(C)C1(C)N=C(c2ncccc2C(=O)O)NC1=O` (centres undefined), for which the log10 Koc (L/kg) turned out to be 2 and the melting point – broadly, the temperature of the solid-liquid transition – was determined as 171 °C.

Take `CC1=CCC(C)C1` (centres undefined): the boiling point (in general, the temperature of boiling at a given pressure) worked out at 93.2 °C.

For the compound `CCc1cc(C(C)(C)C)c(O)c(C(C)(C)C)c1`, the boiling point was found to be 272 °C, the melting point came out at 44 °C and the ready biodegradability entry is given as “not readily biodegradable”.

As to `CCCC`, the log10 Koa amounted to 1.53, the log10 vapour pressure (mmHg) was determined as 3.26, the melting point is -138 °C and the ready biodegradability result is given as “readily biodegradable”.

As for `c1ccc2c(c1)CC1c3ccccc3CCN1C2` (centres undefined), the melting point was found to be 85 °C and the ready biodegradability result was “not readily biodegradable”.

`CC(=CC(=O)c1ccccc1)c1ccccc1`: the boiling point is 342 °C.

In turn, `C=CCCC(=O)O` came in with a boiling point of 188 °C and a melting point of -22.5 °C.

Consider `CCC(C)C(C)(COC(N)=O)COC(N)=O` (centres undefined), for which the melting point worked out at 77 °C.

`COC(=O)C(C)N(C(=O)Cc1ccccc1)c1c(C)cccc1C` (centres undefined): the log10 Koc (L/kg) worked out at 3.54, the log10 vapour pressure (mmHg) is -5 and the melting point is 79 °C.

For `CCCCCCCCCCCCCCCCOC(C)=O`, the melting point is -18.5 °C.

As for `C=C(C)C(=O)OCCO`, the log10 vapour pressure (mmHg) was -0.9 and the ready biodegradability result is listed as “readily biodegradable”.

`CNC(=O)Oc1ccc2c(c1)[C@]1(C)CCN(C)[C@@H]1N2C` registered a melting point of 106 °C.

`CC1OC1C` (centres undefined) yielded a boiling point of 58.2 °C and a melting point of -82.5 °C.

As for `CCN(CC)c1ccc(C=O)cc1`, the melting point was 41 °C and the ready biodegradability result is on record as “not readily biodegradable”.

For the compound `Clc1nc(Cl)nc(Nc2ccccc2Cl)n1`, the log10 Koc (L/kg) was 3, the log10 vapour pressure (mmHg) is -8.21 and the melting point was 160 °C.

Turning to `CCC(CC)(CC)CC`, the boiling point was determined as 146 °C, the log10 vapour pressure (mmHg) was 0.863 and the melting point was -33.1 °C.

The compound `CCOC(=O)C(=O)C(=O)OCC` had a boiling point of 210 °C and a melting point of -30 °C.

Compound `C/C(=C/CC[C@@]1(C)C2C[C@@H]3[C@H](C2)C31C)CO` came in with a boiling point of 302 °C.

Take `C=C(C)C(=O)NCO`: the melting point was -37 °C.

With `C=C`, the boiling point is -104 °C, the log10 Henry constant (atm·m³/mol) was -0.642, the log10 Koa is 0.28 and the log10 vapour pressure (mmHg) was determined as 4.72. Besides, the melting point is -169 °C.

For `O=C(NC(=O)c1c(F)cccc1F)Nc1cc(Cl)c(F)c(Cl)c1F`, the log10 vapour pressure (mmHg) is -11.2 and the melting point came out at 222 °C.

The compound `CCOC(C)CC` (centres undefined) displayed a boiling point of 81 °C.

In turn, `Nc1ccc(Br)cc1Br` gave a melting point of 79.5 °C.

For the compound `Cc1cccc(C)c1Br`, the boiling point turned out to be 204 °C.

`O=[N+]([O-])c1c(F)cc(F)cc1F` gave a boiling point of 184 °C and a melting point of 3.5 °C.

`COC(=O)c1ccc(Br)cc1` returned a melting point of 81 °C.

Take `CC(C)CC(C)Nc1ccc(Nc2ccccc2)cc1` (centres undefined): the ready biodegradability result is given as “not readily biodegradable”.

In turn, `NC1CCC1` yielded a boiling point of 82 °C.

Turning to `O=[N+]([O-])c1cccc(O)c1`, the log10 Henry constant (atm·m³/mol) is -8.7, the melting point was found to be 96.8 °C and the ready biodegradability result is “readily biodegradable”.

`CS(=O)(=O)c1ccc([C@@H](O)[C@@H](CO)NC(=O)C(Cl)Cl)cc1` came in with a melting point of 165 °C.

Compound `Cc1ccnc(C)c1` yielded a boiling point of 158 °C, a log10 Henry constant (atm·m³/mol) of -5.17, a log10 vapour pressure (mmHg) of 0.5 and a melting point of -64 °C. The ready biodegradability result was “readily biodegradable”.

`O=C(O)c1cccc([N+](=O)[O-])c1Cl` came in with a melting point of 184 °C.

Take `COC(=O)c1ccc2cc(C(=O)OC)ccc2c1`: the ready biodegradability entry is reported as “not readily biodegradable”.

As to `O=Cc1ccccc1O`, the boiling point came to 197 °C, the log10 vapour pressure (mmHg) was -0.227 and the melting point is -7 °C.

The compound `CCC(=O)C(C)(C)C` returned a boiling point of 126 °C and a melting point of -45 °C.

`O=C(c1ccccc1O)c1ccccc1O` registered a boiling point of 333 °C and a melting point of 59.5 °C.

Consider `CCN(Cc1ccncc1)C(=O)C(CO)c1ccccc1` (centres undefined), for which the melting point was 96.5 °C.

Turning to `Clc1ccc(I)cc1`, the boiling point was determined as 227 °C, the log10 vapour pressure (mmHg) is -1.23 and the melting point worked out at 57 °C.

Regarding `O=CCC=O`, the melting point came out at 72 °C.

The same data set, now with this note: fish.
In turn, `CCc1cc(C(C)(C)C)c(O)c(C(C)(C)C)c1` had a log10 BCF of 3.46 and a log10 biotransformation half-life (days) of 0.86.

Compound `O=[N+]([O-])c1cccc(O)c1` came in with a log10 BCF of 1.4 and a log10 biotransformation half-life (days) of -0.49.
